Test results taken from US7691965B2, “Helical synthetic peptides that stimulate cellular cholesterol efflux” (The Regents of the University of California, priority 2002, dated 2010).
Where a SMILES comes first, the peptide text is derived from it.

Legend:
[1] = Relative lipid binding affinity by surface balance technique (monolayer exclusion pressure); assay type: physicochemical; conditions: for Monolayer exclusion pressure: surface balance technique
Description: (§1) Relative Lipid Binding Affinity, Hydrophobicity, and Amphiphilicity of Synthetic Peptides—In some experiments, the relative lipid binding affinity of unique peptides was quantified using a surface balance technique (Gillotte, K L. et al., J. Biol. Chem., 274:2021-2028 (1999)). For routine analyses, a turbid solution of dimyristoylphosphatidylcholine (DMPC) was used to assess the relative capacity of synthetic peptides to solubilize phospholipid as described (Palgunachari, M. N. et al., Arterioscler. Thromb. Vasc. Biol., 16:328-338 (1996); McLean, L. R. and Hagaman, K. A., Biochim. Biophys. Acta, 1167:289-295 (1993)). The DMPC was used at a final concentration of 0.08 mg/ml in 10 mM Tris-saline (pH 7.4). The final weight ratio of peptides relative to DMPC was 1:1. The absorbance (400 nm) of samples was monitored continuously over a period of 30 min at 25° C. Hydrophobicity of helical peptides was calculated using the consensus scale (Eisenberg D., Annu. Rev. Biochem., 53:593-623 (1984)). The hydrophobic moment (kcal/mol) of synthetic peptides, which is a measure of helix amphiphilicity, was calculated as described by Eisenberg et al. (Eisenberg, D. et al., Nature, 299:371-374 (1982)).

[2] = target: T1, ABCA1 (Mus musculus, UniProt P41233); assay: ABCA1 stabilization: immunoblot of ABCA1 protein in J774 macrophage membranes after cAMP withdrawal; assay type: cell-based; set-up: J774 macrophages were used to assess relative ABCA1 protein levels in the presence and absence of synthetic peptides; endogenous in cells; host or cells: J774 macrophages treated with a cAMP analog (CPT-cAMP or 8-bromo-cAMP); conditions: 20 μg/ml peptide, 6 h without cAMP, J774 macrophages
Protocol: J774 macrophages were incubated (18 h) with 0.5 mM 8-bromo-cAMP in medium containing 0.1% bovine serum albumin to up-regulate ABCA1 protein expression. Washed cells were subsequently exposed for 6 h to bovine serum albumin medium with (+) or without (−) 8-bromo-cAMP and the indicated synthetic peptides (20 μg/ml). None refers to no peptides. The cellular membrane content of ABCA1 protein was measured by immunoblot analysis.
ABCA1 Stabilization—J774 macrophages were used to assess relative ABCA1 protein levels in the presence and absence of synthetic peptides. Cells were grown in 10% fetal bovine serum, extensively rinsed, and incubated (18 h) with Dulbecco's modified Eagle's medium containing 0.1% bovine serum albumin plus the cAMP analog 8-bromo-cAMP. Cells were next exposed to synthetic peptides or serum-free medium in the absence of the cAMP stimulus to evaluate whether ABCA1 protein was stabilized or degraded. Relative levels of ABCA1 protein were assessed by immunoblot analysis of cell membranes (Oram, J. F. et al., J. Biol. Chem., 278:52379-52385 (2003)). ABCA1 was visualized using an enhanced chemiluminescence detection assay.
To assess ABCA1 stabilization, J774 macrophages were treated with a cAMP analog to up-regulate ABCA1 protein expression and then incubated for 6 h without cAMP. In the absence of inducer, ABCA1 protein is rapidly degraded in these cells (FIG. 9). […] Thus, it appears that the helical combinations that stimulate cholesterol efflux also stabilize the ABCA1 transporter.

[3] = target: T1, ABCA1; assay: Cellular cholesterol efflux from [3H]cholesterol-labeled J774 macrophages with and without cAMP analog; assay type: cell-based; set-up: endogenous in cells; host or cells: J774 macrophages treated with a cAMP analog (CPT-cAMP or 8-bromo-cAMP); conditions: for ABCA1-dependent cholesterol efflux (result in words): lipid-free acceptor, J774 macrophages with vs without cAMP analog
Description: Suitable cholesterol efflux assays are described in, e.g., Bielicki, J. K and Oda, M. N., Biochemistry, 41:2089-2096 (2002); Jia, Z. et al., Biochem. Biophys. Res. Common., 297:206-213 (2002). In some embodiments, a polypeptide known to mediate cholesterol efflux (e.g., helix 9/10 of Apo A-I) is used to screen for additional mediators of cholesterol efflux in a cell based assay. For example, cell lines in which cholesterol efflux can be enhanced using a cAMP analog that up-regulates ABCA1 protein expression (e.g., J774 macrophages) can conveniently be used to assess the ability of an Apo A-I, Apo A-II, Apo A-IV, Apo E, Apo C-I, Apo C-II, Apo C-III, or Serum Amyloid A peptide to mediate cholesterol efflux. The cells are incubated with labeled cholesterol (e.g., [^3H]cholesterol) under conditions appropriate for cholesterol uptake by the cells. cAMP or cAMP analogs (e.g., CPT-cAMP) is incubated with the cells for a suitable time before the initiation of cellular cholesterol efflux, i.e., prior to contacting the cells with helix 9/10 of Apo A-I or the test compound. Measurement of labeled cholesterol appearing in the medium is used to determine the cholesterol efflux mediating activity of the test compound.
Cellular Cholesterol Efflux Protocol—J774 macrophages were used to assess the cholesterol efflux properties of synthetic amphipathic α-helical peptides (Bielicki, J. K and Oda, M. N., Biochemistry, 41:2089-2096 (2002); Jia, Z. et al., Biochem. Biophys. Res. Common., 297:206-213 (2002)). This cell line was chosen because cholesterol efflux can be enhanced using a cAMP analog that up-regulates ABCA1 protein expression. The cells were seeded onto 24-well culture plates and labeled for 48 h with [^3H]cholesterol in RPMI 1640 supplemented with 1% fetal bovine serum. The cAMP analog CPT-cAMP was added (0.3 mM, final concentration) to the cells at least 12 h before the initiation of cellular cholesterol efflux. Synthetic peptides in lipid-free form were added to cells in serum-free RPMI. The lipid-free form of full-length recombinant apoA-I was used as a positive control to define apparent ABCA1-dependent cholesterol efflux in the presence and absence of cAMP stimulation. Efflux results were expressed as a percentage of the initial cellular [^3H] appearing in the medium as a function of time subtracting the background efflux obtained using serum-free medium alone.

[4] = DMPC clearance assay (solubilization of a turbid phospholipid solution); assay type: physicochemical
Description: as §1, with “Peptides-In” for “Peptides—In”, “[…].,” for “Hagaman, K. A.,”

[5] = target: T1, ABCA1; assay: ABCA1 stabilization: immunoblot of ABCA1 protein in J774 macrophage membranes after cAMP withdrawal; assay type: cell-based; set-up: J774 macrophages were used to assess relative ABCA1 protein levels in the presence and absence of synthetic peptides; endogenous in cells; host or cells: J774 macrophages treated with a cAMP analog (CPT-cAMP or 8-bromo-cAMP); conditions: concentration dependence studies, J774 macrophages

T1 sequence (P41233 whole entry): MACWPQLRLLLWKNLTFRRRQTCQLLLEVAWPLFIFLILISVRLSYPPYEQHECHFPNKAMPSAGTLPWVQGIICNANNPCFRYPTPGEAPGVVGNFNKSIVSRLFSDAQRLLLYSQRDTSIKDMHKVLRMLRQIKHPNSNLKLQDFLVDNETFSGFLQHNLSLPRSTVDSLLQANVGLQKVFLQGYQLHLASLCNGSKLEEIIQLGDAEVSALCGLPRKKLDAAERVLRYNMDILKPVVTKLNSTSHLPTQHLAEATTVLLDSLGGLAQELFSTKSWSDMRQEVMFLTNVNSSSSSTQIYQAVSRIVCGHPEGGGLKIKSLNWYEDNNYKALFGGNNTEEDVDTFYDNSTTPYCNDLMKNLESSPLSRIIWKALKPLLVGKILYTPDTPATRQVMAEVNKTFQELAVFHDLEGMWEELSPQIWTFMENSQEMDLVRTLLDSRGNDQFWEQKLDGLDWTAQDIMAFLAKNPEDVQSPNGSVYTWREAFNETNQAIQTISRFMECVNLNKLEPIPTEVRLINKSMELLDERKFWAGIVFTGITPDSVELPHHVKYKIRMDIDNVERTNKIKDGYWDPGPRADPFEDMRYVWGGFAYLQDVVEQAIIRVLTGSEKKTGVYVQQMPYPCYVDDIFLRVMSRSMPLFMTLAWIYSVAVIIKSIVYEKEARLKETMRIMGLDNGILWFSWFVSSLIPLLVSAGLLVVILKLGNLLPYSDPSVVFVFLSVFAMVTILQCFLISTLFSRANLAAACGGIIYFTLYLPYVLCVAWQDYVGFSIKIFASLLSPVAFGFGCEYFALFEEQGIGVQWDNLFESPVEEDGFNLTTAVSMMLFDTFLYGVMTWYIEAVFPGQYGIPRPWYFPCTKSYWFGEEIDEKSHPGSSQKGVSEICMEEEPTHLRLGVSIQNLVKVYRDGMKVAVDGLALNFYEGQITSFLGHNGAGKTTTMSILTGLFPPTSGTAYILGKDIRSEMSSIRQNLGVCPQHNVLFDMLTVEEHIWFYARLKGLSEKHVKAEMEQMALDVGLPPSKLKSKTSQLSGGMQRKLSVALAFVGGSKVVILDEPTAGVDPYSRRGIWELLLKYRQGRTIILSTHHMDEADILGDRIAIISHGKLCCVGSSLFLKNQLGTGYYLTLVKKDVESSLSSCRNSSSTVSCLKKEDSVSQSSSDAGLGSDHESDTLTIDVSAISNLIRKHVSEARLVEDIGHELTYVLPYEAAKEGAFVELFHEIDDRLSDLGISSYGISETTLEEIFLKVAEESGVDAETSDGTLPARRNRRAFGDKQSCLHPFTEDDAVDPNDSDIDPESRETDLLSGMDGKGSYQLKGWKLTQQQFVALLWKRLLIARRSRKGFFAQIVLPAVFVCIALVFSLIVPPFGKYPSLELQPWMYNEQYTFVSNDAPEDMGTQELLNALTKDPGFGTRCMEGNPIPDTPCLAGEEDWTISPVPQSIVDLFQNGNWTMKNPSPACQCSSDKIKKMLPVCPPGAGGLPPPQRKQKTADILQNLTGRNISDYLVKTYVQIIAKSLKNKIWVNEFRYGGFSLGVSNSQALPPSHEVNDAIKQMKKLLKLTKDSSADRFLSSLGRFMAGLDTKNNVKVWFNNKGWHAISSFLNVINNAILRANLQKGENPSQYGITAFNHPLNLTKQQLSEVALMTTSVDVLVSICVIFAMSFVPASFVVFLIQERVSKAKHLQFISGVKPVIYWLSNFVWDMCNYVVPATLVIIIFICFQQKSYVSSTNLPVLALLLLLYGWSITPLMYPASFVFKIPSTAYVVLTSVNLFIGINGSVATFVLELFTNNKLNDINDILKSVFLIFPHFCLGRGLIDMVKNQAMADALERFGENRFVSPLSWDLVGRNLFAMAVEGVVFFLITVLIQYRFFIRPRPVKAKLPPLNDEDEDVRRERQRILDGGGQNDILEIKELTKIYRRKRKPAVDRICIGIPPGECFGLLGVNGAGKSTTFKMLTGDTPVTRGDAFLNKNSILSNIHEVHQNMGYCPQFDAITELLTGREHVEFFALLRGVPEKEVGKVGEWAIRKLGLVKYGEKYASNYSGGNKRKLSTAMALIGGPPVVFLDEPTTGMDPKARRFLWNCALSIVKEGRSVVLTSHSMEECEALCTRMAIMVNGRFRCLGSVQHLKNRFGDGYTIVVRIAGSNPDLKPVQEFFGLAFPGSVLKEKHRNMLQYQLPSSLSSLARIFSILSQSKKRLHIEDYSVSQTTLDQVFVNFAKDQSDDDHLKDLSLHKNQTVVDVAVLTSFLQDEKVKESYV

| lowest concentration that prevented ABCA1 degradation [5] [µg/mL] | concentration at which cholesterol efflux reached maximal levels ([3]; cAMP-treated J774 cells) [µg/mL] | Molecule | lipid binding affinity (surface balance technique), result in words [1] | Monolayer exclusion pressure [1] [dynes/cm] | ABCA1 stabilization (result in words) [2] | cholesterol efflux relative to that obtained with full-length apoA-I ([3]; 75 μg/ml, cAMP-treated macrophages) [%] | ABCA1-dependent cholesterol efflux (result in words) [3] | DMPC clearance [4] | ABCA1 stabilization (result in words) ([2]; listed as Helix 10) | ABCA1-dependent cholesterol efflux (result in words) ([3]; listed as Helix 10) | ABCA1-dependent cholesterol efflux (result in words) ([3]; listed as helix 10) |
| --- | --- | --- | --- | --- | --- | --- | --- | --- | --- | --- | --- |
| – | – | CC(=O)N[C@@H](CC(C)C)C(=O)N[C@@H](CCCCN)C(=O)N[C@@H](CC(C)C)C(=O)N[C@@H](CC(C)C)C(=O)N[C@@H](CC(=O)O)C(=O)N[C@@H](CC(N)=O)C(=O)N[C@@H](Cc1c[nH]c2ccccc12)C(=O)N[C@@H](CC(=O)O)C(=O)N[C@@H](CO)C(=O)N[C@H](C(=O)N[C@H](C(=O)N[C@@H](CO)C(=O)N[C@H](C(=O)N[C@@H](Cc1ccccc1)C(=O)N[C@@H](CO)C(=O)N[C@@H](CCCCN)C(=O)N[C@@H](CC(C)C)C(=O)N[C@@H](CCCNC(=N)N)C(=O)N[C@@H](CCC(=O)O)C(=O)N[C@@H](CCC(N)=O)C(=O)N[C@@H](CC(C)C)C(=O)NCC(N)=O)[C@@H](C)O)[C@@H](C)O)C(C)C [Helical peptide 1] (Ac-LKLLDNWDSVTSTFSKLREQLG-NH2) | identical | 30 | failed to prevent ABCA1 degradation | 15 | failed to stimulate ABCA1-dependent cholesterol efflux | – | – | – | – |
| – | – | CC(=O)N1CCC[C@H]1C(=O)N[C@@H](C)C(=O)N[C@@H](CC(C)C)C(=O)N[C@@H](CCC(=O)O)C(=O)N[C@@H](CC(=O)O)C(=O)N[C@@H](CC(C)C)C(=O)N[C@@H](CCCNC(=N)N)C(=O)N[C@@H](CCC(N)=O)C(=O)NCC(=O)N[C@@H](CC(C)C)C(=O)N[C@@H](CC(C)C)C(=O)N[C@@H](CC(C)C)C(=O)N[C@@H](CCCCN)C(=O)N[C@@H](CC(C)C)C(=O)N[C@@H](CC(C)C)C(=O)N[C@@H](CC(=O)O)C(=O)N[C@@H](CC(N)=O)C(=O)N[C@@H](Cc1c[nH]c2ccccc12)C(=O)N[C@@H](CC(=O)O)C(=O)N[C@@H](CO)C(=O)N[C@H](C(=O)N[C@H](C(=O)N[C@@H](CO)C(=O)N[C@H](C(=O)N[C@@H](Cc1ccccc1)C(=O)N[C@@H](CO)C(=O)N[C@@H](CCCCN)C(=O)N[C@@H](CC(C)C)C(=O)N[C@@H](CCCNC(=N)N)C(=O)N[C@@H](CCC(=O)O)C(=O)N[C@@H](CCC(N)=O)C(=O)N[C@@H](CC(C)C)C(=O)NCC(N)=O)[C@@H](C)O)[C@@H](C)O)C(C)C [Helical peptide 9/1] (Ac-PALEDLRQGLLLKLLDNWDSVTSTFSKLREQLG-NH2) | – | – | retained ABCA1 stabilization activity | – | stimulated cholesterol efflux in an ABCA1-dependent manner | + | – | – | – |
| – | – | CC(=O)N1CCC[C@H]1C(=O)N[C@H](C(=O)N[C@@H](CC(C)C)C(=O)N[C@@H](CCC(=O)O)C(=O)N[C@@H](CO)C(=O)N[C@@H](Cc1ccccc1)C(=O)N[C@@H](CCCCN)C(=O)N[C@H](C(=O)N[C@@H](CO)C(=O)N[C@@H](Cc1ccccc1)C(=O)N[C@@H](CC(C)C)C(=O)N[C@@H](CO)C(=O)N[C@@H](C)C(=O)N[C@@H](CC(C)C)C(=O)N[C@@H](CCC(=O)O)C(=O)N[C@@H](CCC(=O)O)C(=O)N[C@@H](Cc1ccc(O)cc1)C(=O)N[C@H](C(=O)N[C@@H](CCCCN)C(=O)N[C@@H](CCCCN)C(=O)N[C@@H](CC(C)C)C(=O)N[C@@H](CC(N)=O)C(N)=O)[C@@H](C)O)C(C)C)C(C)C [Helical peptide 10] (Ac-PVLESFKVSFLSALEEYTKKLN-NH2) | – | 28 | failed to prevent ABCA1 degradation | – | – | – | nor does it stabilize ABCA1 | does not mediate ABCA1-dependent cholesterol efflux | poor mediator of cellular cholesterol efflux |
| ~10 | 10 | full-length apoA-I: full-length recombinant His-tagged apolipoprotein A-I from a bacterial expression system, positive control [reference compound] | identical | – | – | – | increased dramatically upon the up-regulation of the ABCA1 transporter | – | – | – | – |
